Source: patent US6803387B1, “Treatment of neuropathic pain or fibromyalgia” (Abbott GmbH & Co. KG, priority 1999, dated 2004)

System: neuropathic pain
Experiment: oral administration to a patient with neuropathic pain
Format: in vivo, human
Conditions: one patient, 10 mg orally once daily for weight loss; pain returned on discontinuation, disappeared again on re-administration
Experimental: Sibutramine 10 mg was administered orally once daily for weight loss to a patient who also had neuropathic pain. The neuropathic pain disappeared. Therapy with sibutramine was discontinued and the neuropathic pain returned. When sibutramine was then administered again, the neuropathic pain disappeared.

For `CC(C)CC(N(C)C)C1(c2ccc(Cl)cc2)CCC1` (stereo not shown) [Sibutramine, N,N-dimethyl-1-[1-(4-chlorophenyl)cyclobutyl]-3-methylbutylamine], the neuropathic pain was “disappeared”.
